Patent publication US9018259B2, “Treatment of cancer using benzoic acid derivatives” (New York University, priority 2004, dated 2015)
Blank lines part the entries; values can stand above or below the molecule they belong to.

What was measured:
[1] = system: tyrosinase (from mushrooms); assay: Purified tyrosinase activity, formation of DOPAchrome from L-DOPA; format: biochemical; conditions: at 8.0 mM, up to 10 minutes; L-DOPA 8.0 mM, 800 U/ml tyrosinase; FIG. 2
Method: Activity of purified tyrosinase was measured by monitoring the formation of DOPAchrome. Briefly, a fixed concentration of L-DOPA (8.0 mM) was incubated with 800 U/ml tyrosinase (from mushrooms-Sigma, St. Louis, Mo.) in the absence or presence of increasing concentrations of PABA, compound 44 (C-44) and compound 45 (C-45) (see FIG. 1 for structures) for indicated time points (see FIG. 2 for concentrations and time points). At each time point, 100 μl of the reaction mixture was measured. Data points represent the mean optical density at 475 nm±SD from triplicate wells.

[2] = system: 4T1 breast carcinoma cells; assay: Tumor cell proliferation, WST-1 tetrazolium salt cleavage; format: cell-based; conditions: 50 μg/ml test compound for 3 days, with or without 0.01 μM TAXOL for additional 48 hours; compared to untreated control; FIG. 3C
Method: (§1) Tumor cell proliferation was assessed by monitoring mitochondrial dehydrogenase activity as detected by tetrazolium salt cleavage using a commercially available kit (WST-1; Roche, Indianapolis, Ind.). Briefly, B16F10 melanoma cells, Lewis Lung carcinoma cells, and 4T1 breast carcinoma cells (1×10^6) were resuspended in PABA-free growth medium supplemented with 2.0% fetal bovine serum and 50 μg/ml of test compound (as shown in FIG. 1) Following incubation for 3 days, the cells were either treated or not treated with 0.01 μM TAXOL® (paclitaxel) and incubated for an additional 48 hours. Proliferation was measured; data points represent the mean optical density at 490 nm±SD from triplicate wells.

[3] = system: B16F10 melanoma cells; assay: as above; format: cell-based; conditions: 50 μg/ml test compound for 3 days, with or without 0.01 μM TAXOL for additional 48 hours; compared to untreated control; FIG. 3A
Method: as §1

[4] = system: Lewis Lung carcinoma cells; assay: as above; format: cell-based; conditions: 50 μg/ml test compound for 3 days, with or without 0.01 μM TAXOL for additional 48 hours; compared to untreated control; FIG. 3B
Method: as §1

[5] = system: B16F10 melanoma cells; assay: In vivo tumor growth of B16F10 xenografts in nude mice; conditions: B16F10 s.c. xenograft, daily intraperitoneal injection for 15 days, TAXOL 0.5 μM, C-45 100 μg, FIG. 4
Method: In addition, tumor growth in vivo of xenografts of B16F10 melanoma cells in nude mice was determined. Briefly, subconfluent cultures of B16F10 cells were harvested, washed, and resuspended in sterile PBS. Female nude mice were injected subcutaneously with 1×10^6 cells per mouse and tumors were allowed to grow for 3 days. After 3 days, mice were either untreated or treated daily for 15 days by intraperitoneal injection of TAXOL® (paclitaxel) (0.5 μM), C-45 (100 μg), or a combination of TAXOL® (paclitaxel) and C-45. Tumor growth was determined weekly by caliper measurements. After 15 days, the mice were sacrificed and tumor volume was determined by standard methods using the formula […], where V=volume, L=length, and W=width.

[6] = system: B16F10 melanoma cells; assay: Chick embryo tumor growth model; format: in vivo, chick embryos; conditions: B16F10 cells cultured with 50 μg/ml C-45 at least 7 days before implantation; for growth of B16F10 tumors in chick embryos, with or without TAXOL: TAXOL 0.01 μM, FIG. 5B
Method: The chick embryo tumor growth model was used to determine whether C-45 enhances the ability of TAXOL® (paclitaxel) or ionizing radiation to inhibit tumor growth. Briefly, B16F10 melanoma cells were cultured in growth medium in the presence or absence of 50 μg/ml C-45 for at least 7 days. Following harvesting and washing, about 2×10^5 tumor cells were implanted onto the chorioallontoic membranes of 10 day-old chick embryos and incubated for at least 24 hours. Following incubation, the embryos were treated with either a single fractionated dose of radiation (5.0 Gy) or TAXOL® (paclitaxel) (0.01 μM) and incubated for an additional 7 days. The embryos were sacrificed and tumors were resected and weighed (5-10 embryos per condition).

[7] = system: BRCA-2; assay: BRCA-2 protein expression in G361 melanoma cells treated with PABA; format: cell-based; conditions: G361 human melanoma cells treated with PABA; data not shown
Excerpt: (§2) To determine whether tumor cells abnormally express and signal through the PXR/SXR receptor compared to their non-transformed counterparts, and thus, candidates for treatment with PXR/SXR agonists, immortalized, non-transformed cells and sub-confluent transformed, tumorigenic cells will be cultured in the presence or absence of various concentrations of a known PXR/SXR activator, e.g., benzoic acid derivatives, and a negative control, e.g., streptomycin, for a pre-determined time e.g., 5 days. Cell lyses will be achieved as described above. Following lyses, about 15 μg/lane of protein will be loaded and separated by 10% SDS-PAGE, followed by transfer to nitrocellulose membranes. Membranes will then incubated in the presence of e.g., monoclonal antibody 39048, specific for the PXR/SXR nuclear receptor, followed by washing and labeling with a peroxidase-labeled secondary antibody.
(§3) Similarly, to evaluate expression of cell cycle proteins that may be regulated by PXR/SXR activation in response to drug treatment, membranes as prepared above will be incubated with commercially available monoclonal antibodies such as PC410 (Chemicon, Temecula, Calif.), directed against β-integrin, as a positive control, monoclonal antibody 3303, specific for BRCA-2 (QED Biosciences, San Diego, Calif.), and with monoclonal antibody AB-3, directed against CDC25A (NeoMakers Inc). […]

[8] = system: CDC25A; assay: CDC25A protein expression in G361 melanoma cells treated with PABA; format: cell-based; conditions: G361 human melanoma cells treated with PABA; data not shown
Excerpt: as §2, §3

[9] = biological target: T1, PXR/SXR receptor (Homo sapiens, UniProt O75469); conditions: Moore et al., Mol. Endocrinol. 2002; 16: 977-986; cited from earlier work
T1 sequence (O75469 1-434): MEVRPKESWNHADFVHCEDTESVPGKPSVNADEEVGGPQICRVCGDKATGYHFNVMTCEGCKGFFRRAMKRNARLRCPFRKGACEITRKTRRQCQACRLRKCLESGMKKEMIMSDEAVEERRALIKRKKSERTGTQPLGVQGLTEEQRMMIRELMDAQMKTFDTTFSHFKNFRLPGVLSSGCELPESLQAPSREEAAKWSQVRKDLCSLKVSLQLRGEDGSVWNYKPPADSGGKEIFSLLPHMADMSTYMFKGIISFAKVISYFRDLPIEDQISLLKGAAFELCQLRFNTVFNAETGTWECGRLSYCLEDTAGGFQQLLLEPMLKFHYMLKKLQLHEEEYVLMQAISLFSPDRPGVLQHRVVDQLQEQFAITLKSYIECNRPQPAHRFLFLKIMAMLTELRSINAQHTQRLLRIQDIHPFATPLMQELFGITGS

inhibition of tyrosinase activity (DOPAchrome formation, optical density at 475 nm) [1]: inhibited tyrosinase activity
Compound: C=CCNc1ccc(C(=O)O)cc1 [C-45]
in vitro proliferation of 4T1 breast carcinoma cells (optical density at 490 nm) [2]: inhibited in vitro proliferation
in vitro proliferation of B16F10 cells (optical density at 490 nm) [3]: inhibited in vitro proliferation
in vitro proliferation of Lewis Lung carcinoma cells (optical density at 490 nm) [4]: inhibited in vitro proliferation
in vivo tumor growth (tumor volume) compared to untreated controls [5]: neither TAXOL® (paclitaxel) nor C-45 inhibited in vivo tumor growth
growth of B16F10 tumors in chick embryos, with or without TAXOL [6]: inhibited the growth of the B16F10 tumors significantly
tumor weight / tumor growth in chick embryos, with or without radiation ([6]; single dose of radiation 5.0 Gy, FIG. 5A): reduced tumor weight significantly

inhibition of tyrosinase activity (DOPAchrome formation, optical density at 475 nm) [1]: inhibited tyrosinase activity
Compound: Nc1ccc(C(=O)O)cc1 [PABA, para-amino-benzoic acid]
protein expression of DNA repair protein BRCA-2 [7]: decreased protein expression of DNA repair protein BRCA-2
expression of cell-cycle progression checkpoint protein CDC25A [8]: increase expression of cell-cycle progression checkpoint protein CDC25A
binding and activation of the PXR/SXR receptor [9]: bind and activate the PXR/SXR receptor

Compound: CC(=O)O[C@H]1C(=O)[C@@]2(C)[C@H]([C@H](OC(=O)c3ccccc3)[C@]3(O)C[C@H](OC(=O)[C@H](O)[C@@H](NC(=O)c4ccccc4)c4ccccc4)C(C)=C1C3(C)C)[C@]1(OC(C)=O)CO[C@@H]1C[C@@H]2O [TAXOL® (paclitaxel), paclitaxel]
in vitro proliferation of 4T1 breast carcinoma cells (optical density at 490 nm) [2]: inhibited in vitro proliferation
in vitro proliferation of B16F10 cells (optical density at 490 nm) [3]: inhibited in vitro proliferation
in vitro proliferation of Lewis Lung carcinoma cells (optical density at 490 nm) [4]: inhibited in vitro proliferation
in vivo tumor growth (tumor volume) compared to untreated controls [5]: neither TAXOL® (paclitaxel) nor C-45 inhibited in vivo tumor growth
growth of B16F10 tumors in chick embryos, with or without TAXOL [6]: inhibited the growth of the B16F10 tumors significantly
